According to patent publication US20040229777A1, “Crystalline phases of a potent HCV inhibitor” (Boehringer Ingelheim International GmbH, priority 2003, published 2004):

Key:
[1] = XRPD analysis of the crystal phase under varied relative humidity and elevated temperature; assay type: physicochemical
Excerpt: This behavior is typical of channel hydrates, whereby water resides within the channels in the crystal lattice and can readily move in and out of the structure. Type A is therefore believed to be a type of channel hydrate. Type B is also a variable hydrate crystalline phase of Compound (1), i.e., the number of water molecules associated with each molecule of Compound (1) may vary. […] For this reason, it is preferable to maintain Type B at a modest RH level of about 20% to 40%. X-ray powder diffraction analyses were conducted on a Bruker AXS X-Ray Powder Diffractometer Model D8 Advance, available from Bruker AXS, Inc. of Madison, Wis., using CuKα radiation. The instrument is equipped with a long fine focus x-ray tube. The tube power was set to 40 kV and 30 mA. The instrument was operated in parallel beam mode with a Gobel Mirror, using a 0.6 mm exit slit, a 0.40 soller slit, a LiF flat crystal diffracted beam monochromator and a NaI scintillation detector. A detector scan was run using a tube angle of 1° 2θ. Step scans were run from 2 to 35° 2θ, at 0.050 per step, 4 sec per step. A reference quartz standard was used to check instrument alignment. Samples were prepared for analysis by filing a zero background quartz holder.

[2] = Moisture adsorption/desorption isotherm (VTI SGA-100 moisture balance); assay type: physicochemical; settings: 25° C.; adsorption 5 to 95% RH, desorption 95 to 5% RH; samples dried at 50° C. prior to analysis
Excerpt: It is clear from FIG. 3 that the moisture content of Type A varies depending on the relative humidity of its environment, up to a maximum water sorption level of about 3.7% by weight. […] It is clear from FIG. 7 that the moisture content of Type B varies depending on the relative humidity of its environment, up to a maximum water sorption level of about 4.5% by weight. Moisture adsorption/desorption data were collected on a VTI SGA-100 moisture balance system, available from VTI Corporation of Hialeah, Fla. For adsorption isotherms, an adsorption range of 5 to 95% relative humidity and a desorption range of 95 to 5% relative humidity in 5% relative humidity increments were used for analysis. The samples were dried at 50° C. prior to analysis. The analyses were conducted at 25° C. Equilibrium criteria used for the analysis were less than 0.001 percent change in 5 minutes with a maximum equilibration time of 1200 minutes if the weight criterion was not met.

| maximum water sorption level [2] | SMILES | crystal structure behaviour under varied humidity and temperature ([1]; dry nitrogen up to ˜85% RH and elevated temperature (up to 160° C.)) | crystal structure behaviour under varied humidity and temperature ([1]; low relative humidity (e.g., dry nitrogen) and/or elevated temperature (˜90° C.)) |
| --- | --- | --- | --- |
| about 3.7 % by weight | COc1ccc2c(O[C@@H]3C[C@H]4C(=O)N[C@]5(C(=O)O)C[C@H]5/C=C\CCCCC[C@H](NC(=O)OC5CCCC5)C(=O)N4C3)cc(-c3csc(NC(C)C)n3)nc2c1 [Type A] | crystal lattice expands at higher RH levels while maintaining its overall structure |  |
| about 4.5 % by weight | COc1ccc2c(O[C@@H]3C[C@H]4C(=O)N[C@]5(C(=O)O)C[C@H]5/C=C\CCCCC[C@H](NC(=O)OC5CCCC5)C(=O)N4C3)cc(-c3csc(NC(C)C)n3)nc2c1 [Type B] |  | readily loses water resulting in a partial collapse of its crystal structure |
